ChEMBL document CHEMBL1201862, “PubChem BioAssay data set” (2004)
Activity calls are given as the source filed them.

Assays:
Insulin-degrading enzyme [1] = biological target: T1, Insulin-degrading enzyme (Homo sapiens, UniProt P14735); assay: recombinant IDE activation, cell-free – biochemical, fluorescence polarization, counter-screen for IDE activator project, dose response (AID 588681)
T1 sequence (P14735 whole entry): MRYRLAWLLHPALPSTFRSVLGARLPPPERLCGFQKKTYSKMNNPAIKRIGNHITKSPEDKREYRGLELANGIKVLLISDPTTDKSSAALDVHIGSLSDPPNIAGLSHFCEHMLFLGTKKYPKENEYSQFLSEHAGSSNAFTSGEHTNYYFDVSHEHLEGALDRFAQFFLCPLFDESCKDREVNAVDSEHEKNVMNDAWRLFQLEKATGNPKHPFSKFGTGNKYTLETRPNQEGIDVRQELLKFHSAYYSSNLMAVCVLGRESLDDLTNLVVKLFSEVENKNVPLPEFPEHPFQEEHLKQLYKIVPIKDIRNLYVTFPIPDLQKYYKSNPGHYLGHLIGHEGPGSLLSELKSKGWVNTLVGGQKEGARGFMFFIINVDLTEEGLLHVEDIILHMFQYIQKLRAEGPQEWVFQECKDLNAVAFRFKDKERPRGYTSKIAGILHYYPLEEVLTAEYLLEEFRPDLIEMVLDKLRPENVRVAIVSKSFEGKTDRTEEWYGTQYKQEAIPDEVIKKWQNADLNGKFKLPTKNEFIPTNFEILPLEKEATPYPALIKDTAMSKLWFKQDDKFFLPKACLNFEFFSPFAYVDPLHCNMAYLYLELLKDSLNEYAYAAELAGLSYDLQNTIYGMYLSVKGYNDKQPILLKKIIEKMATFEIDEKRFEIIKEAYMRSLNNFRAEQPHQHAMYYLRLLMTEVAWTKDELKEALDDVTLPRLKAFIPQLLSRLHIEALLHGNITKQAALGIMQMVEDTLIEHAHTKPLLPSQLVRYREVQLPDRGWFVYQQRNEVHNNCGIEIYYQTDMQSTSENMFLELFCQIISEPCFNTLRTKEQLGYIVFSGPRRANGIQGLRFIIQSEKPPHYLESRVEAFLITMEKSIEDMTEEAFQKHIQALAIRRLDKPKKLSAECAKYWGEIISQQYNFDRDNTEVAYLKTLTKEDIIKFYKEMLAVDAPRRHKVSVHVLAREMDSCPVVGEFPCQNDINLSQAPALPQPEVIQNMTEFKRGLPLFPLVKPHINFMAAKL

Insulin-degrading enzyme [2] = biological target: T1, Insulin-degrading enzyme; assay: cellular IDE activation of Abeta substrate cleavage – fluorescence polarization, HEK cells, dose response (AID 588439); format: functional, cell-based
HEK293 [3] = assay: membrane integrity loss in HEK cells – cell-based, fluorescence, cytotoxicity control for IDE activator project, dose response (AID 588440); format: functional; conditions: Homo sapiens;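 also: cytotoxicity by LDH release measuring loss of membrane integrity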
HEK293 [4] = assay: optical interference in Abeta FP readout, dose response, artefact control for IDE activator project, biochemical, fluorescence polarization (AID 588442); format: functional, cell-based; conditions: Homo sapiens
[5] = biological target: Adenosylmethionine-8-amino-7-oxononanoate aminotransferase (Mycobacterium tuberculosis, UniProt P9WQ81); assay: Mycobacterium tuberculosis BioA enzyme inhibitor Measured in Biochemical System Using Plate Reader - 2163-02_Inhibitor_Dose_CherryPick_Activity.; format: functional, Mycobacterium tuberculosis UT205
[6] = biological target: T2, Carboxy-terminal domain RNA polymerase II polypeptide A small phosphatase 1 (Homo sapiens, UniProt Q9GZU7); assay: CTDSP1 inhibitors, concentration-response, biochemical, absorbance readout, ultra-high-throughput screen actives (AID 540297); format: functional
T2 sequence (Q9GZU7 whole entry): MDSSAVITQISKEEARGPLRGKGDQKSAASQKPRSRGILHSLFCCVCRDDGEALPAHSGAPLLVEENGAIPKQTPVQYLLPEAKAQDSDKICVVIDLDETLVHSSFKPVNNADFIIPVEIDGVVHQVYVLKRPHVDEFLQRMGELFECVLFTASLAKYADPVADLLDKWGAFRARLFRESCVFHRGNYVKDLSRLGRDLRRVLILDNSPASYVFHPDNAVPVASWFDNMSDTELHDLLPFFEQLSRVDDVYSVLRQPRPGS

[7] = biological target: Tyrosine-protein phosphatase non-receptor type 11 (Homo sapiens, UniProt Q06124); assay: PTPN11 enzyme inhibitors – biochemical, selectivity assay for STEP inhibitor project, dose response (AID 602367); format: functional; conditions: read-out: IC50_Mean
[8] = biological target: Tyrosine-protein phosphatase non-receptor type 5 (Homo sapiens, UniProt P54829); assay: PTPN5 enzyme inhibition – biochemical, fluorescence intensity, uHTS hits, confirmation (AID 602372); format: functional; conditions: read-out: IC50_Mean
[9] = biological target: Dual specificity protein phosphatase 3 (Homo sapiens, UniProt P51452); assay: VHR phosphatase inhibition, dose response, selectivity assay for STEP inhibitor project, biochemical (AID 602374); format: functional; conditions: read-out: IC50_Mean
Caspase-6 = biological target: T3, Caspase-6 (Homo sapiens, UniProt P55212); assay: inhibition of CASP6 peptide cleavage – biochemical, VEID-R110 fluorescence, cherry-pick, dose response (AID 720632)
T3 sequence (P55212 whole entry): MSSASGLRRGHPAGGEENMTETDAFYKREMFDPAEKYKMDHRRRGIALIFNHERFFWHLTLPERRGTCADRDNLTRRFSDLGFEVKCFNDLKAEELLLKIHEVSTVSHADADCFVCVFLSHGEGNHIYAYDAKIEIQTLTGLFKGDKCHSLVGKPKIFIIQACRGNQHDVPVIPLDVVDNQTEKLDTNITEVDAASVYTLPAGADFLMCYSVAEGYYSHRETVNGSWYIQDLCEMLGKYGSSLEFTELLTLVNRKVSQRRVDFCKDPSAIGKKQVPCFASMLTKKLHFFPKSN

[10] = biological target: Beta-2 adrenergic receptor (Homo sapiens, UniProt P07550); assay: ADRB2 activation measured by internalization – cell-based, FAP fluorogen, flow cytometry, cherry pick 1, dose response (AID 588763); format: functional
[11] = biological target: T4, Apoptotic protease-activating factor 1 (Homo sapiens, UniProt O14727); format: functional
T4 sequence (O14727 whole entry): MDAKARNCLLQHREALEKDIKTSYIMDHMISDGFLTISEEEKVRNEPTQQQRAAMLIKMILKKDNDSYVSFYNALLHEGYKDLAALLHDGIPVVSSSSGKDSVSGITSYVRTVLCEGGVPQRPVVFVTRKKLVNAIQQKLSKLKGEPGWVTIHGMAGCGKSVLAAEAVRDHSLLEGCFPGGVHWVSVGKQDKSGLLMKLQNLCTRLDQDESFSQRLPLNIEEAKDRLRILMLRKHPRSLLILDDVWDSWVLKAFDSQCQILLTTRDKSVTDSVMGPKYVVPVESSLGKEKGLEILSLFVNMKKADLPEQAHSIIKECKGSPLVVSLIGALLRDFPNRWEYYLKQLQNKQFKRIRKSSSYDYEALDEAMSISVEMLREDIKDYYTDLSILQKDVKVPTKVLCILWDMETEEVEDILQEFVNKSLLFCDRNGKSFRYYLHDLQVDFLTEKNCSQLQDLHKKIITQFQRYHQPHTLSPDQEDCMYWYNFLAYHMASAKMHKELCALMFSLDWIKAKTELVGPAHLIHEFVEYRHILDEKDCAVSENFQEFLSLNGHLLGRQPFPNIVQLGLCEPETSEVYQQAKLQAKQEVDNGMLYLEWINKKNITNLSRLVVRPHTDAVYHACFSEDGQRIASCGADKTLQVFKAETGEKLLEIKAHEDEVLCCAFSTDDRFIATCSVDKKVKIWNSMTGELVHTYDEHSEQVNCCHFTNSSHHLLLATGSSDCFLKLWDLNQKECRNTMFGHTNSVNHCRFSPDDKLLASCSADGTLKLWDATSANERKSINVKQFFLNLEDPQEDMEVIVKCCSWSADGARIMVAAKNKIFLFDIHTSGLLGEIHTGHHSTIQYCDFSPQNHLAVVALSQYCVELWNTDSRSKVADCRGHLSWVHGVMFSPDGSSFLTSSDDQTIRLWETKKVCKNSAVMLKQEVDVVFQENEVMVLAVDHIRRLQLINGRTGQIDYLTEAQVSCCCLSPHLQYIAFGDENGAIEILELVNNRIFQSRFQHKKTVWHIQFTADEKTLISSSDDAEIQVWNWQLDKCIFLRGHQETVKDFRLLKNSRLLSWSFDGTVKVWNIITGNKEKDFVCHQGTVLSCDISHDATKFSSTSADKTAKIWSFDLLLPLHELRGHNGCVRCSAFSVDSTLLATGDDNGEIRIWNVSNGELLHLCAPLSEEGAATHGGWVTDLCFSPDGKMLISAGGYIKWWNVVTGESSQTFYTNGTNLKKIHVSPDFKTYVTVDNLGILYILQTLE

HEK293 [12] = assay: cells; format: functional, cell-based; conditions: Homo sapiens
[13] = biological target: T5, Nuclear receptor subfamily 0 group B member 1 (Homo sapiens, UniProt P51843); assay: Luminescence-based cell-based high throughput dose response assay for inhibitors of the orphan nuclear receptor subfamily 0, group B, member 1 (DAX1; NR0B1). [Related pubchem assays (depositor defined):AID504766, AID504790]; format: functional
T5 sequence (P51843 whole entry): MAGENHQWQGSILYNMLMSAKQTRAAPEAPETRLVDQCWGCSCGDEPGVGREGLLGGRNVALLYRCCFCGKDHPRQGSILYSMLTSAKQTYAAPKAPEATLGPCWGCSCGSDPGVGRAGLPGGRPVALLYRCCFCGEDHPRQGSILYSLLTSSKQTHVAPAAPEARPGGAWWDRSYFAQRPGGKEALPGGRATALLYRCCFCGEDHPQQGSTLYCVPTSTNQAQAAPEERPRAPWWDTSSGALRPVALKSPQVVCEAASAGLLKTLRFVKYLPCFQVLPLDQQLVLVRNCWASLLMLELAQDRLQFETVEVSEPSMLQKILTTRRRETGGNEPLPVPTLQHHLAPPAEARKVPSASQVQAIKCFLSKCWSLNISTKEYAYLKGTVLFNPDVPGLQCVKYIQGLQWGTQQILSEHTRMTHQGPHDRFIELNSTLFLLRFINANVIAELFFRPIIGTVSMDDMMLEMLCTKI

[14] = viability of uninfected HEp-2 cells – cell-based, HTS, cytotoxicity control for RSV inhibitor project, dose response (AID 2410); format: functional; conditions: human respiratory syncytial virus
[15] = biological target: Photoreceptor-specific nuclear receptor (Homo sapiens, UniProt Q9Y5X4); format: functional, cell-based;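 also: CHO-S cells with Gal4-NCOR and VP16-NR2E3 two-hybrid luciferase reporter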
[16] = biological target: SWI/SNF-related matrix-associated actin-dependent regulator of chromatin subfamily A member 2 (Homo sapiens, UniProt P51531); assay: Luminescence-based cell-based high throughput dose response assay to identify activators of the function of SWI/SNF related, matrix associated, actin dependent regulator of chromatin, subfamily a, member 2 (SMARCA2, BRM).; format: functional
[17] = Counterscreen for activators of the function of SWI/SNF related, matrix associated, actin dependent regulator of chromatin, subfamily a, member 2 (SMARCA2, BRM): Luminescence-based cell-based high throughput dose response assay to identify non-selective compounds using the VP16 reporter assay.; format: functional

Sequence of Beta-2 adrenergic receptor (P07550 whole entry): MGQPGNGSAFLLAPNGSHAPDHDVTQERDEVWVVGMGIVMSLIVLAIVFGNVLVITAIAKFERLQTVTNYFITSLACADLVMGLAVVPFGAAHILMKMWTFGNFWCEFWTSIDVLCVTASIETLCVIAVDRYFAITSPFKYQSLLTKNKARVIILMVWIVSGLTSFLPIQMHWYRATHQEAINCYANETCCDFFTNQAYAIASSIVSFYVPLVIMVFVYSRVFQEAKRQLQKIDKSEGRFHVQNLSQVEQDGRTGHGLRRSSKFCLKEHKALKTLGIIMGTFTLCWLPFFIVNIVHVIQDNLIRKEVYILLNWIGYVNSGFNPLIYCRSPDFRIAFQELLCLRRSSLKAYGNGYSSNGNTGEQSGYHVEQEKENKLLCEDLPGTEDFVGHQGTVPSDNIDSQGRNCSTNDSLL
Sequence of Tyrosine-protein phosphatase non-receptor type 11 (Q06124 whole entry): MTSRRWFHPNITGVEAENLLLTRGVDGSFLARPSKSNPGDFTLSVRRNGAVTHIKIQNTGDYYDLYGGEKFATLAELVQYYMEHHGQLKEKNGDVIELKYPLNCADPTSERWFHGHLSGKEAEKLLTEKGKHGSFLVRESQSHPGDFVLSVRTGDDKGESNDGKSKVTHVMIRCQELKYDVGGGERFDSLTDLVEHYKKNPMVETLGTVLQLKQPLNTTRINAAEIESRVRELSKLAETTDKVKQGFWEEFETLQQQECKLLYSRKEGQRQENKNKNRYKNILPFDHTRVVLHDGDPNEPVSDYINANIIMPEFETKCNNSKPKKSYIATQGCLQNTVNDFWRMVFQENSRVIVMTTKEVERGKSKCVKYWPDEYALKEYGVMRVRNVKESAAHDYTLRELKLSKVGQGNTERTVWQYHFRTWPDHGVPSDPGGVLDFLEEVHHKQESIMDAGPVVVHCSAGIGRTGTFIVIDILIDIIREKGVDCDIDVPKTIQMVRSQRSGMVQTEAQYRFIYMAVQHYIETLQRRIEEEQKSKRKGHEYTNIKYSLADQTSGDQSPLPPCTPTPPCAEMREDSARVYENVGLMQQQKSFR
Sequence of Tyrosine-protein phosphatase non-receptor type 5 (P54829 whole entry): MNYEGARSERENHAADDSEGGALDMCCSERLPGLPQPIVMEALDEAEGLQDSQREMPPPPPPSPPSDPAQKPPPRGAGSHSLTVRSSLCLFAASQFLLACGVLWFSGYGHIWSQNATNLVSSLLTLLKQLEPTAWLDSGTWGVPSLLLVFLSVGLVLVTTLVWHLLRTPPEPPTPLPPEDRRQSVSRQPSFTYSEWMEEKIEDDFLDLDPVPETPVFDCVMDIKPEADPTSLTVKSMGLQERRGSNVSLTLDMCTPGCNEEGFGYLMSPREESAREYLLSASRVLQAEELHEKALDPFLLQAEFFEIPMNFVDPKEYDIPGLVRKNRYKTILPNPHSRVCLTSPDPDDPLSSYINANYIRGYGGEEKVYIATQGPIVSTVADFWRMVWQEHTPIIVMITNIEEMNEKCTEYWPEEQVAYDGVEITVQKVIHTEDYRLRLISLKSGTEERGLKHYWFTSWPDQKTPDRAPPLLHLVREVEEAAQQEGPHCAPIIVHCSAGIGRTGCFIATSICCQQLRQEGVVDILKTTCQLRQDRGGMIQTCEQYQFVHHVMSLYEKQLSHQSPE
Sequence of Dual specificity protein phosphatase 3 (P51452 whole entry): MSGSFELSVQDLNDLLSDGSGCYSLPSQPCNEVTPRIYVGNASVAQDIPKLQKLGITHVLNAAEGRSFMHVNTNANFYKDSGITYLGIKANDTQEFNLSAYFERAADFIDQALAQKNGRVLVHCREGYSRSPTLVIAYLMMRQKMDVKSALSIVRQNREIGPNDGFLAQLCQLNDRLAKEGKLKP
Sequence of Adenosylmethionine-8-amino-7-oxononanoate aminotransferase (P9WQ81 whole entry, the tested form may be a part): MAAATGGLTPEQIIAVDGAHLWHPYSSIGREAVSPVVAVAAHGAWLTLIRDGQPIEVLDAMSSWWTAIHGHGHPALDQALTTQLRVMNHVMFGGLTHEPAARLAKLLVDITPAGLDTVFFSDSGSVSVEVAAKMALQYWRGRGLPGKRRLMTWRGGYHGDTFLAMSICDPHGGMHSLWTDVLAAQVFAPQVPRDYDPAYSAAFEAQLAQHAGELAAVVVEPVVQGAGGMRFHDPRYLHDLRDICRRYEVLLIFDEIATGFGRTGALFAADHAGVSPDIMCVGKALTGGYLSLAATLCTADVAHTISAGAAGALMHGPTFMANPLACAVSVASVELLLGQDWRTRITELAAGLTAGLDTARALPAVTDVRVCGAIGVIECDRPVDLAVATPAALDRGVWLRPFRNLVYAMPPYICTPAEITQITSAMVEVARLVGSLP
Sequence of SWI/SNF-related matrix-associated actin-dependent regulator of chromatin subfamily A member 2 (P51531 whole entry): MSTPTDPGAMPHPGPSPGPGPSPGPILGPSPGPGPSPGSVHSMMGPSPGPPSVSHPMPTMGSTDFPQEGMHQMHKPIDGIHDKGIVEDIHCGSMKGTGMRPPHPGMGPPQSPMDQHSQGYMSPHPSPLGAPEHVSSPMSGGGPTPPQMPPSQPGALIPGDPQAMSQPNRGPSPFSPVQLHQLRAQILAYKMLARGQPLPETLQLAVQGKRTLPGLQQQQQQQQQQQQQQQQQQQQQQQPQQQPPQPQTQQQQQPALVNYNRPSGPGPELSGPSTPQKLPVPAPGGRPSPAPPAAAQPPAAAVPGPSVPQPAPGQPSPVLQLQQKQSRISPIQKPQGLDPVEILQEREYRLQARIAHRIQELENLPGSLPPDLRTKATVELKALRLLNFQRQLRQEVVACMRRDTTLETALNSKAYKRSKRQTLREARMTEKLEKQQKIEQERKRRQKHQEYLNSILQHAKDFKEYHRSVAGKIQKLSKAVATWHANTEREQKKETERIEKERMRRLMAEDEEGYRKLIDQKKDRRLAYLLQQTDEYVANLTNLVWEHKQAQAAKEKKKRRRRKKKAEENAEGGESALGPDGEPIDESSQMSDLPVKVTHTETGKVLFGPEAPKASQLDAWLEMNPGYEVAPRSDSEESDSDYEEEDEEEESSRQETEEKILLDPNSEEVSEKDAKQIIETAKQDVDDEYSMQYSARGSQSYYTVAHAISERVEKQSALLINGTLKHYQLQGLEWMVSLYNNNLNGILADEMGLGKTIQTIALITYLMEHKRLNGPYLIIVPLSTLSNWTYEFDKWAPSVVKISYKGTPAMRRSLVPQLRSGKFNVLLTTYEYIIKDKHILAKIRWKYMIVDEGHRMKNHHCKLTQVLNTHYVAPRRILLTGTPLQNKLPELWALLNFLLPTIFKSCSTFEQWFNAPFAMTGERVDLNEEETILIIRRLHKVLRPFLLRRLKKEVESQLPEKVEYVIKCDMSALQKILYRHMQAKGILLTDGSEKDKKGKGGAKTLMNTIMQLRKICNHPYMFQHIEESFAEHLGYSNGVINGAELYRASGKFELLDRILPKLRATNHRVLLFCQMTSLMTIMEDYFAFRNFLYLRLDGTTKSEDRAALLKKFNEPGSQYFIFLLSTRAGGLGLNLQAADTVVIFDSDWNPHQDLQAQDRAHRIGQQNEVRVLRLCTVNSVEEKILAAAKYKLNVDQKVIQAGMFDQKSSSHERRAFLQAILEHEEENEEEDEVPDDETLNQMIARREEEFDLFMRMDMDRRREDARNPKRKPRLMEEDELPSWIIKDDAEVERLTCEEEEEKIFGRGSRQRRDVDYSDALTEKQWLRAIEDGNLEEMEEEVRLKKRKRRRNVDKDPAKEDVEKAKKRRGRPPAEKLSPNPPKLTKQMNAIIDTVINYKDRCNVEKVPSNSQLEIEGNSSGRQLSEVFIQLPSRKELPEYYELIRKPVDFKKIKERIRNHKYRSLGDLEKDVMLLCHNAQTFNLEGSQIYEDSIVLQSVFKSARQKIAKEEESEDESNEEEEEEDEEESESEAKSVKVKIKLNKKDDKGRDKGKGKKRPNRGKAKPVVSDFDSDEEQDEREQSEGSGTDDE
Sequence of Photoreceptor-specific nuclear receptor (Q9Y5X4 whole entry, the tested form may be a part): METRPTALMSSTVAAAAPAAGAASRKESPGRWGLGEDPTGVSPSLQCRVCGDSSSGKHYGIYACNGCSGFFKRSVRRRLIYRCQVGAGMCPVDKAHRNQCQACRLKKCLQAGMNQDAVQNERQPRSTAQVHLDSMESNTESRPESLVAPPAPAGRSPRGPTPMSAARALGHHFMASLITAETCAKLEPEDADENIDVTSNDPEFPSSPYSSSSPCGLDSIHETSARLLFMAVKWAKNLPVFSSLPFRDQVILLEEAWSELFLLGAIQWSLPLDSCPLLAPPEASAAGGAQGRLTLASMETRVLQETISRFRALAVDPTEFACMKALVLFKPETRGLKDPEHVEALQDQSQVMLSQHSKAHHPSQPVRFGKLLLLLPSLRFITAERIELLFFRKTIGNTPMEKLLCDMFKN

Cn1c(CN2CCOCC2)nnc1SCC(=O)Nc1ccc([N+](=O)[O-])cc1O
EC50 (Insulin-degrading enzyme [1]): > 54.7 µM (inactive) | EC50 (Insulin-degrading enzyme [2]): > 54.7 µM (inactive) | IC50 (HEK293 [3]): > 89.2 µM (inactive) | EC50 (HEK293 [4]): > 54.7 µM (inactive)

O=C(C1CC1)N1CC[C@@H]2[C@H]1c1cc(Br)ccc1N[C@@H]2CO
AC50 [5]: 7.01 µM (active)

O=S(=O)(Nc1ccccc1)c1cccc2nsnc12
IC50 [6]: 6.86 µM (active) | IC50 [7]: 3.9 µM (active) | IC50 [8]: 35.1 µM (inactive) | IC50 [9]: 2.91 µM (active) | AC50 (Caspase-6): 8.86 µM (active)

Cc1ccc(N=C(S)N(CCN(C)C)Cc2cccs2)c(C)c1
IC50 [7]: 3.37 µM (active) | IC50 [8]: 24.6 µM (inactive) | IC50 [9]: 1.36 µM (active)

O=C(NC1(Cc2ccc(O)cc2)CCCCC1)c1ccccc1
EC50 [10]: 7.42 µM (active)

CC(OC(=O)c1c2c(nc3ccccc13)/C(=C\c1ccc3c(c1)OCO3)CCC2)C(=O)Nc1ccc(S(N)(=O)=O)cc1 (stereo not given)
EC50 (Insulin-degrading enzyme [1]): > 54.7 µM (inactive) | EC50 (Insulin-degrading enzyme [2]): > 54.7 µM (inactive) | IC50 (HEK293 [3]): > 89.2 µM (inactive) | EC50 (HEK293 [4]): > 54.7 µM (inactive)

CC(=O)c1ccc2c(c1)c(C#N)c1ccccc1[n+]2[O-]
IC50 [11]: 88.8 µM (active)

CCCCN(C)C(=O)Cn1nc(Cc2ccncc2)c2ccccc2c1=O
IC50 (HEK293 [12]): > 67.5 µM (inactive) | IC50 [13]: > 67.5 µM (inactive)

CN1c2ccc(-c3cccc(F)c3)cc2[C@H]2[C@H](CCN2C(=O)c2ccncc2)[C@@H]1CO
AC50 [5]: 7.24 µM (active)

Cc1[nH]c2ccccc2c1/C=N/NC(=O)c1cccc(F)c1
IC50 (HEK293 [12]): > 67.5 µM (inactive) | IC50 [13]: > 67.5 µM (inactive)

Cc1c(C(=O)N2CCc3ccccc3C2)oc2ccc(S(=O)(=O)N3CCCCCC3)cc12
EC50 [10]: 1.46 µM (active)

N#C/C(=C/c1ccc(-c2cc([N+](=O)[O-])ccc2Cl)o1)C(N)=O
CC50 [14]: 16.6 µM (active) | IC50 (HEK293 [12]): > 67.6 µM (inactive) | IC50 [13]: > 67.6 µM (inactive)

Cc1ccc(S(=O)(=O)OCCC2=CC(=O)CCN2Cc2ccccc2)cc1
EC50 (Insulin-degrading enzyme [1]): > 54.7 µM (inactive) | EC50 (Insulin-degrading enzyme [2]): > 54.7 µM (inactive) | IC50 (HEK293 [3]): > 89.1 µM (inactive) | EC50 (HEK293 [4]): > 55.9 µM (inactive)

Cc1cccc(C(=O)N[C@H](C(=O)Nc2ncc(C)s2)C(C)C)c1
IC50 [15]: 59.2 nM (active) | EC50 [16]: > 91.1 µM (inactive) | EC50 [17]: > 91.1 µM (inactive)
